From ChEMBL document CHEMBL1201862, “PubChem BioAssay data set” (2004)
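These data come from cells grown in 96-well plates and exposed to compound for 48 hours at five concentrations. The concentration for 50% growth inhibition is given as GI50.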 Calls of active or inactive are those of the source. Cut-off read from the data, not from the text of the source: active = GI50 up to about 1.1 µM and inactive = higher.

What was measured:
Assay in all cases: growth of human tumour cells (NCI), 48 h
[1] = tested on: 786-0
[2] = tested on: DU-145
[3] = tested on: HCC 2998
[4] = tested on: HCT-15
[5] = tested on: HT-29
[6] = tested on: IGROV-1
[7] = tested on: KM12
[8] = tested on: MCF7
[9] = tested on: MDA-MB-231
[10] = tested on: MDA-MB-435
[11] = tested on: Malme-3M
[12] = tested on: NCI-H23
[13] = tested on: NCI-H460
[14] = tested on: OVCAR-8
[15] = tested on: SF-295
[16] = tested on: SK-MEL-5
[17] = tested on: SW-620
[18] = tested on: U-251
[19] = tested on: A498
[20] = tested on: SK-MEL-2

Structure (SMILES) | GI50 [1] | GI50 [2] | GI50 [3] | GI50 [4] [µM] | GI50 [5] | GI50 [6] | GI50 [7] | GI50 [8] | GI50 [9] | GI50 [10] | GI50 [11] | GI50 [12] | GI50 [13] | GI50 [14] | GI50 [15] | GI50 [16] | GI50 [17] | GI50 [18] | GI50 [19] | GI50 [20]
COC(=O)c1c(C)c2c(c(C)c1O)OC(=O)c1c(C)cc(O)c(C=O)c1O2 | > 100 µM (inactive) | > 100 µM (inactive) | > 100 µM (inactive) | > 100 | > 100 µM (inactive) | 69.7 µM (inactive) | > 100 µM (inactive) | > 100 µM (inactive) | > 100 µM (inactive) | > 100 µM (inactive) | > 100 µM (inactive) | > 100 µM (inactive) | > 100 µM (inactive) | > 100 µM (inactive) | > 100 µM (inactive) | > 100 µM (inactive) | > 100 µM (inactive) | > 100 µM (inactive) |  | 
O=C(CCC(=O)CC(O)(C(F)(F)F)C(F)(F)F)CC(O)(C(F)(F)F)C(F)(F)F | 46.1 µM (inactive) | 53.1 µM (inactive) | 58.1 µM (inactive) | 35 | 29.7 µM (inactive) | 29.7 µM (inactive) | 26.4 µM (inactive) | 37.8 µM (inactive) | 29.4 µM (inactive) | 47.9 µM (inactive) | 42.1 µM (inactive) | 30.8 µM (inactive) | > 10 µM (inactive) | 42.4 µM (inactive) | 32.1 µM (inactive) | 55.7 µM (inactive) | 63.5 µM (inactive) | 65 µM (inactive) | 0.151 µM (active) | 
OCC(O)C1OC2CC1Nc1ccccc1N2 (configuration not stated) | > 100 µM (inactive) | > 100 µM (inactive) | > 100 µM (inactive) | > 100 | > 100 µM (inactive) | > 100 µM (inactive) | > 100 µM (inactive) |  | > 100 µM (inactive) | > 100 µM (inactive) | > 100 µM (inactive) | > 100 µM (inactive) | > 100 µM (inactive) | > 100 µM (inactive) | > 100 µM (inactive) | > 100 µM (inactive) | > 100 µM (inactive) | > 100 µM (inactive) | 8.85 µM (inactive) | > 100 µM (inactive)
c1cc2c(c(-c3c4ccccc4nc4ccccc34)c1)CC1(CC2)OCCO1 | > 100 µM (inactive) |  | > 100 µM (inactive) | > 100 |  | > 100 µM (inactive) | > 100 µM (inactive) | > 100 µM (inactive) | > 100 µM (inactive) | > 100 µM (inactive) | > 100 µM (inactive) | > 100 µM (inactive) | > 100 µM (inactive) | > 100 µM (inactive) | > 100 µM (inactive) | > 100 µM (inactive) | > 100 µM (inactive) | > 100 µM (inactive) | > 100 µM (inactive) | > 100 µM (inactive)
O=C1C=CC(=O)c2c1ccc1c3ccccc3n(Cc3ccc([N+](=O)[O-])cc3)c21 | > 100 µM (inactive) | > 100 µM (inactive) | > 100 µM (inactive) | 70.1 | > 100 µM (inactive) | > 100 µM (inactive) | > 100 µM (inactive) | > 100 µM (inactive) | > 100 µM (inactive) | > 100 µM (inactive) |  | > 100 µM (inactive) | > 100 µM (inactive) | > 100 µM (inactive) | > 100 µM (inactive) | > 100 µM (inactive) | 38.7 µM (inactive) | > 100 µM (inactive) |  | 
COc1ccc(CC2OC3(CCCCC3)CC3CCCCN32)cc1 (configuration not stated) | > 100 µM (inactive) | > 100 µM (inactive) | > 100 µM (inactive) | > 100 | 57.4 µM (inactive) | > 100 µM (inactive) | > 100 µM (inactive) | 72.9 µM (inactive) | 10.3 µM (inactive) | 50 µM (inactive) | > 100 µM (inactive) | > 100 µM (inactive) | > 100 µM (inactive) | 40.9 µM (inactive) | > 100 µM (inactive) | 49.2 µM (inactive) | 39.4 µM (inactive) | > 100 µM (inactive) |  | > 100 µM (inactive)
CC(=O)Oc1ccc2cc(Oc3ccccc3)c(=O)oc2c1 | > 100 µM (inactive) | > 100 µM (inactive) | > 100 µM (inactive) | 53.3 | > 100 µM (inactive) | > 100 µM (inactive) | > 100 µM (inactive) | > 100 µM (inactive) | > 100 µM (inactive) |  | > 100 µM (inactive) | > 100 µM (inactive) | 90.8 µM (inactive) | 80.9 µM (inactive) | > 100 µM (inactive) | 50.4 µM (inactive) | > 100 µM (inactive) | 69.7 µM (inactive) | 67 µM (inactive) | 
CCCCNS(=O)(=O)c1n[nH]c(=O)[nH]c1=O | > 100 µM (inactive) | > 100 µM (inactive) |  | > 100 | > 100 µM (inactive) | > 100 µM (inactive) | > 100 µM (inactive) | > 100 µM (inactive) | > 100 µM (inactive) | > 100 µM (inactive) | > 100 µM (inactive) | > 100 µM (inactive) | > 100 µM (inactive) | > 100 µM (inactive) | 16.9 µM (inactive) | > 100 µM (inactive) | > 100 µM (inactive) | > 100 µM (inactive) | > 100 µM (inactive) | > 100 µM (inactive)
Cc1cc(C#N)c[n+](C)c1 | > 100 µM (inactive) | > 100 µM (inactive) | > 100 µM (inactive) | > 100 | > 100 µM (inactive) | > 100 µM (inactive) | > 100 µM (inactive) | > 100 µM (inactive) | > 100 µM (inactive) |  | > 100 µM (inactive) | > 100 µM (inactive) | > 100 µM (inactive) | > 100 µM (inactive) | > 100 µM (inactive) | > 100 µM (inactive) | > 100 µM (inactive) | > 100 µM (inactive) | > 100 µM (inactive) | > 100 µM (inactive)
CN(C)c1ccc(/C=N/c2ccc(-c3nc4ccccc4[nH]3)cc2)cc1 | 74.8 µM (inactive) | 65.8 µM (inactive) |  | 24.6 | 39.5 µM (inactive) | 47.1 µM (inactive) | 32.5 µM (inactive) | 46.9 µM (inactive) | 32.8 µM (inactive) | > 100 µM (inactive) | 24.3 µM (inactive) | > 100 µM (inactive) | 51.8 µM (inactive) | > 100 µM (inactive) | 46.6 µM (inactive) | 56.9 µM (inactive) | 32.4 µM (inactive) | 39.2 µM (inactive) | 69.5 µM (inactive) | > 100 µM (inactive)
O=C1CSC(=S)N1c1ccco1 | 25.4 µM (inactive) | > 100 µM (inactive) |  | 22 | > 100 µM (inactive) | > 100 µM (inactive) | 21.9 µM (inactive) | 39.2 µM (inactive) | 31.8 µM (inactive) | 24.2 µM (inactive) | > 100 µM (inactive) | > 100 µM (inactive) | > 100 µM (inactive) | 56.5 µM (inactive) | > 100 µM (inactive) | 43 µM (inactive) | 41.1 µM (inactive) | > 100 µM (inactive) | > 100 µM (inactive) | 46.7 µM (inactive)
C=C1CC(C)(c2cccc(Nc3nc4ccccc4c4occc34)c2)OC1=O (configuration not stated) | 1.67 µM (inactive) | 5.6 µM (inactive) | 2.43 µM (inactive) | 3.52 | 4.99 µM (inactive) |  | 5.08 µM (inactive) | 3.71 µM (inactive) | 5.11 µM (inactive) | 5.11 µM (inactive) | 17.6 µM (inactive) |  | 15.6 µM (inactive) | 6.08 µM (inactive) | 16.8 µM (inactive) | 15.1 µM (inactive) |  | 10 µM (inactive) | 17.7 µM (inactive) | 
N=C(N)SCCON1C(=O)c2ccccc2C1=O | > 100 µM (inactive) | > 100 µM (inactive) |  | > 100 | > 100 µM (inactive) | > 100 µM (inactive) | > 100 µM (inactive) | > 100 µM (inactive) | > 100 µM (inactive) | > 100 µM (inactive) | > 100 µM (inactive) | > 100 µM (inactive) | > 100 µM (inactive) | > 100 µM (inactive) | > 100 µM (inactive) | > 100 µM (inactive) | > 100 µM (inactive) | > 100 µM (inactive) | > 100 µM (inactive) | > 100 µM (inactive)
Cc1ccc(C)c(N2C(=O)C(=O)c3c(C)ccc(C)c32)c1 | 29.3 µM (inactive) | 27.7 µM (inactive) |  | 14.2 | 20.8 µM (inactive) | 15.3 µM (inactive) | 24.5 µM (inactive) | 23.4 µM (inactive) | 16.9 µM (inactive) | 21.1 µM (inactive) | 20.7 µM (inactive) | 21 µM (inactive) | 37.2 µM (inactive) | 23.8 µM (inactive) | 22.9 µM (inactive) | 14.8 µM (inactive) | 27.7 µM (inactive) | 17.2 µM (inactive) |  | 20.6 µM (inactive)
CCOC(=O)c1[nH]c2nc(SC)nc(NC)c2c1N | > 100 µM (inactive) | > 100 µM (inactive) | 87.5 µM (inactive) | 84.1 | 47.3 µM (inactive) | > 100 µM (inactive) | > 100 µM (inactive) |  | > 100 µM (inactive) | > 100 µM (inactive) | > 100 µM (inactive) | > 100 µM (inactive) | 60.4 µM (inactive) | > 100 µM (inactive) | > 100 µM (inactive) | 30.3 µM (inactive) | > 100 µM (inactive) | > 100 µM (inactive) | > 100 µM (inactive) | > 100 µM (inactive)
c1ccc2c(c1)OC(N1CCCC1)c1cnc(N3CCCC3)nc1-2 (configuration not stated) | 40.3 µM (inactive) | 49.9 µM (inactive) |  | 29.7 | 36.2 µM (inactive) |  | 41.3 µM (inactive) | 18.6 µM (inactive) | 41.8 µM (inactive) | 49.8 µM (inactive) | 40.7 µM (inactive) | 37 µM (inactive) | 36.7 µM (inactive) | 51.3 µM (inactive) | 30.4 µM (inactive) |  | 36.3 µM (inactive) | 45.9 µM (inactive) | 26.5 µM (inactive) | 
